In patent US20060234278A1, “Sequences used to identify if a female mammal comprises a mutation in the alpha-fetoprotein sequence(S) or a partial or total deletion of the alpha-fetoprotein sequence(S)” (priority 1999, published 2006):

Tests used:
Format in all cases: in vivo, mouse
[1] = system: estrogen synthesis; experiment: Serum estradiol levels of ATD-treated gestating females by RIA assay; settings: heterozygous gestating females, daily s.c. 4 mg ATD from day 13.5 of gestation; 10 pg/ml is the RIA detection limit
Protocol: (§1) Females heterozygous for the Afp tm2Ibmm allele (CD1 strain, 8th backcross level) were mated with Afp tm2Ibmm homozygous males and housed under the conditions described above. They then received a daily subcutaneous injection in the neck of 4 mg of the aromatase inhibitor ATD (1, 4, 6-androstatrien-3,17-dione, Steraloids, Newport, R.I.) dissolved in propylene glycol, from the 13.5th day of gestation (day 0.5 is defined as the day of vaginal plug detection) until the end of gestation. Controls were injected with propylene glycol only. Pups were born naturally or retrieved by Caesarian operation on embryonic day 20.5. Blood from the mothers was taken from the hart and estradiol levels were measured by classical RIA assay. Fertility of female pups was tested at the age of 2-3 months. In parallel, sisters of the female pups tested were dissected at the age of 3 months and total RNA was extracted from the pituitary and the hypothalamus as described above. cDNA was obtained using the TaqMan Reverse Transcription Reagents kit (Applied Biosystems) and real time PCR was performed on the 7300 Real Time PCR System (Applied Biosystems) with the Platinum Quantitative PCR SuperMix-UDG kit (Invitrogen) and the TaqMan Gene Expression Assays (Applied Biosystems) for pituitary genes except for Egr1. […]

[2] = system: AFP KO females; experiment: Fertility of AFP KO female pups after prenatal ATD treatment
Protocol: as §1

[3] = system: Ucp1, Isp2, Egr1, Gnrhr expression in the pituitary; experiment: Real time PCR gene expression in pituitary of prenatally ATD-treated AFP KO females; settings: prenatal ATD-treated AFP KO females (n=7)
Protocol: as §1

[4] = system: Gnrh2 gene expression in the hypothalamus; experiment: Real time PCR Gnrh2 gene expression in hypothalamus of prenatally ATD-treated AFP KO females; settings: prenatal ATD-treated AFP KO mice (n=7), normalized to Hprt
Protocol: as §1

## C[C@]12C=CC(=O)C=C1C=C[C@@H]1[C@@H]2CC[C@]2(C)C(=O)CC[C@@H]12 [ATD, 1,4,6-androstatrien-3,17-dione]
[1]
  Serum estradiol levels: < 10 pg/mL
[2]; AFP KO and heterozygous pups from ATD-injected mothers, tested at 2-3 months, 8 KO and 17 heterozygous pups tested
  Fertility of female pups: fertile
[2]; litters born to prenatally ATD-treated AFP KO and heterozygous females
  Litter size: normal size
[3]; normalized to Hprt, p=0.044
  Pituitary gene expression levels vs untreated KO females: statistically different from those of the untreated KO females
[3]; p=0.508, except Isp2 (p=0.014)
  Pituitary gene expression levels vs heterozygous untreated females: not statistically different from those of the heterozygous, untreated females
[4]
  Gnrh2 expression level in hypothalamus: not increased
